The source of these data is patent US9796719B2, “Compounds and pharmaceutical compositions thereof for the treatment of inflammatory disorders” (GALAPAGOS NV, priority 2013, dated 2017).

pIC50: −log10 of the molar value. Some results are limits rather than exact numbers.

In assay [1] the target is T1, hENPP2 (UniProtKB/SwissProt Sequence ref Q13822) (Homo sapiens (Human), UniProt Q13822). Briefly: LPC hENPP2 assay (choline release, LPC as substrate). Type of assay: biochemical. The procedure, abridged: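 Detection is coupled: choline oxidase produces peroxide, which HRP uses to form quinoneimine dye from TOOS and 4-aminoantipyrine, read at 555 nm. The reaction is stopped with 20 mM EGTA in the developer mix, then incubated 30 min at room temperature; inhibition lowers signal.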

The target of assay [2] is T1, hENPP2. Briefly: FS3 hENPP2 assay (fluorogenic substrate FS-3). The class given is biochemical. To be noted: hENPP2, FS-3 as substrate. The gist of the method:
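Compound dilutions (1/5 steps, top concentration as added 20 μM) were preincubated 30 min at room temperature with hENPP2 (0.4 or 0.64 μg/mL final) in pH 8.0 Tris buffer containing NaCl, KCl, MgCl2, CaCl2 and 0.1% fatty-acid-free BSA. FS-3 (0.75 μM as added) was then hydrolysed for 30 min at 30 °C, and fluorescence was read at 485/520 nm.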

Assay [3] concerns LPA 18:2. The assay is described as follows: Mouse whole blood (plasma) LPA assay. The class given is biochemical. The procedure: (§1) Whole blood is collected from rats or mouse by exsanguinations on sodium heparin tube, then after centrifugation at 3000 rpm for 15 min at 4° C., plasma is stored at −80° C. Compounds are diluted in DMSO in concentration dependent manner then 0.5 μL are dispensed into 96-wells plate placed in ice. Plasma is defrosted on ice then 49.5 μL of plasma are added into the well containing 0.5 μL of compound (1% DMSO final). Plates are covered with a lid in polypropylene and incubated at +37° C., 5% CO2, for 2 h under gentle shaking (except controls which are stored at −20° C.).
(§2) At the end of the incubation, controls are defrosted in ice and transferred in the incubated plates for LC-MS/MS analysis with a non GLP-validated method. For the analysis, plasma proteins from a 10 μL incubated plates are precipitated with an excess of methanol containing the internal standard, LPA 17:0. After centrifugation, the corresponding supernatant is injected on a C18 column. Analytes are eluted out of the column under isocratic conditions. An API5500 QTRAP mass spectrometer (ABSciex™) is used for the detection of LPA 18:2. No calibration curve is prepared for LPA 18:2, however relative quantities are evaluated based on the peak area.

Assay [4] relates to LPA 18:2. Briefly: Rat whole blood (plasma) LPA assay. The class given is biochemical. The procedure:
as §1, §2

Assay [5] concerns cells recovered in the BALF. Briefly: Tobacco smoke (TS) model, lungs inflammatory cells recruitment. The settings on record: TS-exposed mice. Type of assay: in vivo, mouse. The procedure:
The aim of this experiment is to evaluate the efficacy and potency of a test compound administered p.o., once or twice daily on days 6 to 11, vs reference compounds, on pulmonary inflammation induced by 11 days of TS-exposure in female C57BL/6J mice, by assessing the effect of a test compound on the tobacco smoke induced recruitment of inflammatory cells to the lungs.
The test compounds are formulated in PEG200/0.5% methylcellulose (25/75, v/v) and are given at a dose volume of 10 mL/kg. Roflumilast and Dexamethasone are included as positive […] control, respectively. Each treatment group consists of 10 mice.
A first group of mice is subjected to daily TS-exposure for 5 consecutive days and sacrificed on the day 6, 24 h after the final TS-exposure.
A second group is exposed to air for 5 consecutive days (sham exposure) and sacrificed on the day 6, 24 h after the final air-exposure.
Compound and reference-treated groups are subjected to daily TS-exposure for 11 consecutive days and sacrificed on the day 12, 24 h after the final TS-exposure. Mice are dosed p.o. on days 6 to 11, twice daily, 1 h prior to and 6 h after each TS-exposure, with either vehicle, or the test compound at 3, 5, 10 or 30 mg/kg. Another group is dosed p.o. on days 6 to 11, once daily, 1 h prior to each TS-exposure, with either vehicle, or the test compound at a selected dose, for example 10 mg/kg.
An additional group is dosed p.o., once daily, on days 6 to 11, with roflumilast at 5 mg/kg, 1 h prior to each TS-exposure. Dexamethasone is dosed p.o., twice daily, on days 6 to 11, at 0.3 mg/kg, 1 h prior to and 6 h after each TS-exposure.
For each mouse, a BAL is performed using 0.4 mL of PBS. […]
The lungs are dissected out and the left lobes are removed, snap-frozen and stored at −80° C. […] Cell data are presented as individual data points for each animal and the mean value calculated for each group. […]
Percentage inhibitions for the cell data are calculated using the formula below: […]

Regarding `CCc1nc2cnc(C3=CCN(CC(=O)N4CC(O)C4)CC3)cn2c1N(C)c1nc(-c2ccc(F)cc2)c(C#N)s1` [Cpd 21, 2-((2-ethyl-6-(1-(2-(3-hydroxyazetidin-1-yl)-2-oxoethyl)-1,2,3,6-tetrahydropyridin-4-yl)imidazo[1,2-a]pyrazin-3-yl)(methyl)amino)-4-(4-fluorophenyl) thiazole-5-carbonitrile], the pIC50 is 6.30 to 7.00 against hENPP2 [1], 7.60 to 11.00 against hENPP2 [2] and less than 6.00 in the assay with LPA 18:2 [3].
For the molecule `CCc1nc2cnc(N3CCN(CC(=O)N4CC(O)C4)CC3)cn2c1N(C)c1nc(-c2ccc(F)cc2)c(C#N)s1` [Cpd 2, 2-((2-ethyl-6-(4-(2-(3-hydroxyazetidin-1-yl)-2-oxoethyl)piperazin-1-yl)imidazo[1,2-a]pyrazin-3-yl)(methyl)amino)-4-(4-fluorophenyl) thiazole-5-carbonitrile], the pIC50 on hENPP2 [1] is 6.30 to 7.00; in the assay with LPA 18:2 [4], less than 6.00. For the same molecule, the “number of cells recovered in the BALF (macrophage cells, epithelial cells, neutrophils)” value in assay [5] (3 mg/kg twice daily p.o.) and in assay [5] (10 mg/kg twice daily p.o.) was “significantly inhibited” in each case.
With `CCc1nc2cnc(N3CCN(C(=O)CN4CC(O)C4)CC3)cn2c1N(C)c1nc(-c2ccc(F)cc2)c(C#N)s1` [Cpd 12, 2-((2-ethyl-6-(4-(2-(3-hydroxyazetidin-1-yl)acetoyl)piperazin-1-yl)imidazo[1,2-a]pyrazin-3-yl)(methyl)amino)-4-(4-fluorophenyl) thiazole-5-carbonitrile], the values for the pIC50 on hENPP2 [1], at hENPP2 [2] and with LPA 18:2 [4] were less than 6.00, 7.60 to 11.00 and less than 6.00, respectively. In assay [5] (10 mg/kg twice daily p.o.), the “number of cells recovered in the BALF (macrophage cells, epithelial cells, neutrophils)” value was “significantly inhibited”.
